According to PubChem BioAssay AID1963983 (Molecular Pharmacology Branch, DTP, NCI, 2024):
pIC50: −log10 of the molar value.

System: 186277-243-T-J2-PDC multi-cell spheroid viability
Test: Anticancer human tumor 186277-243-T-J2-PDC patient-derived colon adenocarcinoma cell line growth inhibition [PI3K]
Conditions: for pIC50: curve of first compound; for viability, T/C: stronger effect = lower value; active = viability on the fitted dose curve at most 10% of control; inactive = the rest
Description: Combinatorial screen of targeted agents with the PI3K inhibitors inavolisib, alpelisib, duvelisib, and copanlisib in multi-cell type tumor spheroids
A high-throughput screen of multi-cell type tumor spheroids was designed to identify active combinations of targeted small molecules and PI3K pathway inhibitors. Complex spheroids include a stromal component modeled by human endothelial cells (HUVEC) and fibroblasts modeled by human mesenchymal stem cells (MSCs). The concentration ranges selected for each drug and investigational agent were based upon clinically achievable concentrations if the clinical Cmax of the agent was known.
Compounds. The drugs and investigational agents: inavolisib (NSC800729), alpelisib (NSC765974), duvelisib (NSC772469), copanlisib (NSC816437), ipatasertib (NSC767898), afuresertib (NSC778305), talazoparib (NSC767125), sapanisertib (NSC764658), selumetinib (NSC741078), tovorafenib (DAY101, NSC766906), vemurafenib (NSC761431), ravoxertinib (NSC781343), sotorasib (NSC818433), MRTX1133 (NSC 836407), abemaciclib (NSC 768073), palbociclib (NSC758247), venetoclax (NSC 766270), SY5609 (NSC837396), enzalutamide (NSC755605), and darolutamide (NSC825331), were obtained from the National Cancer Institute (NCI) Developmental Therapeutics Program Chemical Repository. The FDA-approved anticancer drug set is available from the NCI Developmental Therapeutics Program. […] The stock solutions were prepared in dimethyl sulfoxide (DMSO, Sigma-Aldrich, St. Louis, MO, cat. D2650) at 800-fold the tested concentration and stored at -70 degrees C prior to their use. All drugs and investigational agents were tested over a range starting from a high concentration at or near the clinical Cmax and decreasing in half-log increments. If the clinical Cmax for an agent had not been determined, the highest concentration tested was 10 microM.
Cell Culture. All cells were maintained in an incubator at 37 degrees C and 5% CO2 with 95% humidity. The PDC lines were cultured according to standard operating procedures established by the NCI PDMR (https://pdmr.cancer.gov/sops/default.htm). All PDCs were thawed and cultured in Matrigel-coated flasks prepared with a working solution of 1X Ham's F-12 nutrient mix, without supplementation (Invitrogen, Waltham, MA, cat. 11765054), 100 U/mL penicillin-streptomycin (Invitrogen, cat. 15140122), and 2.5% Matrigel (Corning Inc., Corning, NY, cat. 354248) for the first three passages. The 354836-022-R-J1-PDC, 475296-252-R-J1-PDC, and 997726-040-R-J2-PDC lines were cultured in 6A media, which includes advanced DMEM/F-12 (Thermo Fisher Scientific, cat. 12634028), 10 mM HEPES (Thermo Fisher Scientific, cat. 15630080), 1X GlutaMAX supplement (Thermo Fisher Scientific, cat. 35050061), 0.1 mg/mL primocin (InvivoGen, San Diego, CA, cat. ant-pm-2), 10% defined fetal bovine serum, heat inactivated (HyClone Laboratories Inc., Logan, UT, cat. SH30070.03HI), 50% L-WRN conditioned media (ATCC, cat. CRL-3276), 1.25 mM N-Acetyl-L-cysteine (Sigma-Aldrich, cat. A9165), 10 mM nicotinamide (Sigma-Aldrich, cat. N0636), 1X B-27 supplement (Thermo Fisher Scientific, cat. 17504044), 1X N-2 supplement (Thermo Fisher Scientific, cat. 17502048), and 10 microM Y-27632 dihydrochloride (Tocris Bioscience, Bristol, United Kingdom, cat. 1254). The 624824-186-R-J2-PDC line was cultured in 6C/Colon 1B media, which includes all 6A media components plus 50 ng/mL human EGF recombinant protein (Thermo Fisher Scientific, cat. PHG0311). […]

[1] = second compound 0.0316 µM, first compound 0.0316 µM
[2] = second compound 0.0316 µM, first compound 0.1 µM
[3] = second compound 0.0316 µM, first compound 0.316 µM
[4] = second compound 0.0316 µM, first compound 1 µM
[5] = second compound 0.0316 µM, first compound 3.16 µM
[6] = second compound 0.0316 µM, first compound 10 µM
[7] = second compound 0.1 µM, first compound 0.0316 µM
[8] = second compound 0.1 µM, first compound 0.1 µM
[9] = second compound 0.1 µM, first compound 0.316 µM
[10] = second compound 0.1 µM, first compound 1 µM
[11] = second compound 0.1 µM, first compound 3.16 µM
[12] = second compound 0.1 µM, first compound 10 µM
[13] = second compound 0.316 µM, first compound 0.0316 µM
[14] = second compound 0.316 µM, first compound 0.1 µM
[15] = second compound 0.316 µM, first compound 0.316 µM
[16] = second compound 0.316 µM, first compound 1 µM
[17] = second compound 0.316 µM, first compound 3.16 µM
[18] = second compound 0.316 µM, first compound 10 µM
[19] = second compound 1 µM, first compound 0.0316 µM
[20] = second compound 1 µM, first compound 0.1 µM
[21] = second compound 1 µM, first compound 0.316 µM
[22] = second compound 1 µM, first compound 1 µM
[23] = second compound 1 µM, first compound 3.16 µM
[24] = second compound 1 µM, first compound 10 µM
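Also: spheroids exposed to compounds for seven days before viability reading.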

C#Cc1c(F)ccc2cc(O)cc(-c3ncc4c(N5CC6CCC(C5)N6)nc(OCC56CCCN5CC(F)C6)nc4c3F)c12 (stereo unspecified) + CC(Nc1ncnc2nc[nH]c12)c1cc2cccc(Cl)c2c(=O)n1-c1ccccc1
7.06: pIC50 (second compound 0.316 µM)
inactive: viability, T/C [1] 98.9% | viability, T/C [2] 47.3% | viability, T/C [3] 19.4% | viability, T/C [4] 11.3% | viability, T/C [5] 10.3% | viability, T/C [7] 106% | viability, T/C [8] 46.3% | viability, T/C [9] 21.2% | viability, T/C [10] 13.3% | viability, T/C [11] 16.1% | viability, T/C [12] 8% | viability, T/C [13] 102% | viability, T/C [14] 41% | viability, T/C [15] 25.5% | viability, T/C [16] 20.3% | viability, T/C [17] 14.3% | viability, T/C [18] 11.2% | viability, T/C [19] 93.6% | viability, T/C [20] 38% | viability, T/C [21] 18% | viability, T/C [22] 19.6% | viability, T/C [23] 11% | viability, T/C [24] 6.62% | viability, T/C (second compound 3.16 µM, first compound 0.0316 µM) 68.6% | viability, T/C (second compound 3.16 µM, first compound 0.1 µM) 26.3% | viability, T/C (second compound 3.16 µM, first compound 0.316 µM) 14.9% | viability, T/C (second compound 10 µM, first compound 0.0316 µM) 31.9% | viability, T/C (second compound 10 µM, first compound 0.1 µM) 12.6%
7.03: pIC50 (second compound 0.0316 µM) | pIC50 (second compound 0.1 µM)
7.10: pIC50 (second compound 1 µM)
> 7.50: pIC50 (second compound 10 µM)
active: viability, T/C [6] 9.72% | viability, T/C (second compound 3.16 µM, first compound 1 µM) 12.1% | viability, T/C (second compound 3.16 µM, first compound 3.16 µM) 7.19% | viability, T/C (second compound 3.16 µM, first compound 10 µM) 4.96% | viability, T/C (second compound 10 µM, first compound 0.316 µM) 8.73% | viability, T/C (second compound 10 µM, first compound 1 µM) 6.7% | viability, T/C (second compound 10 µM, first compound 3.16 µM) 4.26% | viability, T/C (second compound 10 µM, first compound 10 µM) 4.02%
7.28: pIC50 (second compound 3.16 µM)

CC(C)NCC(C(=O)N1CCN(c2ncnc3c2C(C)CC3O)CC1)c1ccc(Cl)cc1 (stereo unspecified) + COc1c(OCCCN2CCOCC2)ccc2c3n(c(=NC(=O)c4cnc(N)nc4)nc12)CCN3
6.04: pIC50 (second compound 0.00316 µM)
inactive: viability, T/C (second compound 0.00316 µM, first compound 0.0316 µM) 93.9% | viability, T/C (second compound 0.00316 µM, first compound 0.1 µM) 86.5% | viability, T/C (second compound 0.00316 µM, first compound 0.316 µM) 73.1% | viability, T/C (second compound 0.00316 µM, first compound 1 µM) 46.9% | viability, T/C (second compound 0.00316 µM, first compound 3.16 µM) 30.9% | viability, T/C (second compound 0.00316 µM, first compound 10 µM) 20.5% | viability, T/C (second compound 0.01 µM, first compound 0.0316 µM) 102% | viability, T/C (second compound 0.01 µM, first compound 0.1 µM) 93.2% | viability, T/C (second compound 0.01 µM, first compound 0.316 µM) 68.8% | viability, T/C (second compound 0.01 µM, first compound 1 µM) 29.2% | viability, T/C (second compound 0.01 µM, first compound 3.16 µM) 20.6% | viability, T/C (second compound 0.01 µM, first compound 10 µM) 12.2% | viability, T/C [1] 69.4% | viability, T/C [2] 62.7% | viability, T/C [3] 37.1% | viability, T/C [4] 23.2% | viability, T/C [5] 15.2% | viability, T/C [6] 10.8% | viability, T/C [7] 21.8% | viability, T/C [8] 16.4% | viability, T/C [9] 11%
> 7.50: pIC50 (second compound 0.1 µM) | pIC50 (second compound 0.316 µM) | pIC50 (second compound 1 µM)
6.26: pIC50 (second compound 0.01 µM)
6.75: pIC50 (second compound 0.0316 µM)
active: viability, T/C [10] 7.77% | viability, T/C [11] 7.84% | viability, T/C [12] 5.5% | viability, T/C [13] 5.04% | viability, T/C [14] 3.98% | viability, T/C [15] 5.15% | viability, T/C [16] 10.1% | viability, T/C [17] 6.04% | viability, T/C [18] 8.76% | viability, T/C [19] 1.65% | viability, T/C [20] 3.37% | viability, T/C [21] 1.85% | viability, T/C [22] 2.98% | viability, T/C [23] 2.47% | viability, T/C [24] 2.26%

CCCS(=O)(=O)Nc1ccc(F)c(C(=O)c2c[nH]c3ncc(-c4ccc(Cl)cc4)cc23)c1F
6.39% [middle of 4 runs]: viability, T/C (compound 10 µM)
inactive: viability, T/C (compound 0.0316 µM) 94.8% [middle of 4 runs] | viability, T/C (compound 0.1 µM) 89.2% [middle of 4 runs] | viability, T/C (compound 0.316 µM) 86.2% [middle of 4 runs] | viability, T/C (compound 1 µM) 86.7% [middle of 4 runs] | viability, T/C (compound 3.16 µM) 84.1% [middle of 4 runs]
5.39 µM [middle of 4 runs]: IC50 (curve of compound)
